# According to US20140287454A1, “SUSCEPTIBILITY TO SELECTIVE CDK9 INHIBITORS” (MAX-PLANCK-GESELLSCHAFT ZUR FÖRDERUNG DER WISSENSCHAFTEN …, priority 2011, published 2014):
# Legend:
# [1] = molecular target: T1, CDK9/CyclinT1 (Homo sapiens, UniProt P50750); assay: Lance Ultra KinaSelect Assay, CDK9; assay type: biochemical; conditions: FIG. 2
# T1 construct: purchased Invitrogen
# Text: (§1) The principle behind this enzymatic assay is based upon the phosphorylation of the Ulight-Peptide Substrat. It is detected by using a specific EU-labeled anti-phospho peptide antibody. […] Binding of an inhibitor to the kinase prevents phosphorylation of the Ulight-MBP Substrat, resulting in a loss of FRET.
# as §1
# This compound predilution was then serial diluted 1:3 over 8 steps in DMSO and briefly spun down. Each compound solution was now diluted 1:20 in Enzymatic Buffer (HEPES: 50 mM, pH: 7.5; MgCl2: 10 mM; EGTA: 1 mM; DTT: 2 mM; Tween-20: 0.01%), mixed thoroughly and spun down.
# [2] = system: BrdNut mutated cell lines (HCC2429, TY-82, 690100, 143100); assay: Proliferation assay on Brd-4-Nut mutated versus wild type cell lines (FIG. 4); assay type: cell-based; conditions: mutated: HCC2429, TY-82, 690100, 143100, wild type: Hela, HCC366, H460, HCC1143, hPBMCs
# Description: The proliferation results are presented as IC50 in μM. First, the anti-proliferative effect of CDK9 inhibitors is much more pronounced on BrdNut mutated cell lines (=sensitive cell lines).
# Cell lines were maintained in RPMI 1640 cell culture medium+glutamine (PAN Biotech GmbH, Aidenbach, Germany; order no. P04-22100; P04-05500) supplemented with 10% fetal calf serum “Gold” (PAA Laboratories GmbH, Pasching, Austria; order no. A15-151) and grown in a humidified atmosphere at 37° C., 5% CO2. As a first step, an optimal cell density for each cell line was determined to guarantee linearity. For viability assays with compounds, cells were then seeded at a density of 200 to 1000 per well in 25 μl in 384-well plates (Greiner Bio-One, Frickenhausen, Germany; order no. 781080). After overnight incubation at 37° C./5% CO2, 25 nl or 75 nl compounds were added to each sample well by using BIOMEK FX^P Laboratory Automation Workstation (Beckman Coulter, USA). Wells with cells and 0.1% or 0.3% DMSO in culture medium were used as positive controls, wells with cells and 10 μM staurosporine (Selleck Chemicals, Huston, USA) in culture medium were used as negative controls. […] Luminescence was measured by Envision Plate Reader (Perkin Elmer, USA). […]
# [3] = molecular target: T2, CDK9/CycT (Homo sapiens, UniProt P50750); assay: Radiometric protein kinase assay (33PanQinase Activity Assay), kinase selectivity; assay type: biochemical; conditions: 23 different kinases, 10 μM compound versus DMSO control; FIG. 3
# T2 construct: purchased ProQinase
# T2 sequence (P50750 whole entry): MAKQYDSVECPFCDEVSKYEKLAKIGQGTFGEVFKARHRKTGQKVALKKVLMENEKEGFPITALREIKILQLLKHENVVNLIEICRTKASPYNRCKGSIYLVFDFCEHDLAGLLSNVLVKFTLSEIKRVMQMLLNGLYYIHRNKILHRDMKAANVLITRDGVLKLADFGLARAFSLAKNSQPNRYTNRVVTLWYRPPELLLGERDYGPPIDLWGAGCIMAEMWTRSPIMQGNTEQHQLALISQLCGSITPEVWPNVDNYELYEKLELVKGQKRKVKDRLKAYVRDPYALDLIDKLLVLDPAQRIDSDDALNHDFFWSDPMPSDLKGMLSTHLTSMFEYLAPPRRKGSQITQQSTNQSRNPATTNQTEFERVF
# T2 sequence (O60563 whole entry partner): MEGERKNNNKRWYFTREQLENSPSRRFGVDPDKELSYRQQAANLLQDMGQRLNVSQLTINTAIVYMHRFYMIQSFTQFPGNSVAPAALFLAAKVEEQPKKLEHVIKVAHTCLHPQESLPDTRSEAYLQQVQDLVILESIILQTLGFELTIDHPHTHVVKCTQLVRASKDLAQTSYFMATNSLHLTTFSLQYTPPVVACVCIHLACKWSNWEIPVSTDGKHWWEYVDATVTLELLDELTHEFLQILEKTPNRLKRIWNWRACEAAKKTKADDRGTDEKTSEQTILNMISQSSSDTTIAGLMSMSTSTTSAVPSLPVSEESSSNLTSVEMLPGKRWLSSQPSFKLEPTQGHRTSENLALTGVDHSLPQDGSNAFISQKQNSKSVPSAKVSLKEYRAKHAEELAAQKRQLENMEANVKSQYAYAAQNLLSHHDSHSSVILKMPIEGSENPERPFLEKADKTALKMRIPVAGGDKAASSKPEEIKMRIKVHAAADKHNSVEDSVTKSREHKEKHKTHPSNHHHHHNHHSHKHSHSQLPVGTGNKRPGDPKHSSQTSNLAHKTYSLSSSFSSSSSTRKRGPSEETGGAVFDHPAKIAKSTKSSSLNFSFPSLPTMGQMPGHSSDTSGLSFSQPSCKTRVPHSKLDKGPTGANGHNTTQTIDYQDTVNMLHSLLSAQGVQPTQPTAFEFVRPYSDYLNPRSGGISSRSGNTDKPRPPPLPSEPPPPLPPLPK
# Description: A radiometric protein kinase assay (33PanQinase® Activity Assay) was used for measuring the kinase activity of protein kinases employing exemplary CDK9 inhibitors to be used in the present invention (see FIG. 3). […] Activities of other kinases are not inhibited.
# A similar experimental procedure is performed when the resulting activity within ^33PanQinase® assay is done. In advance buffers are prepared but in this case the pipetting sequence is first ATP solution diluted with assay buffer, DMSO or compound solution. The reaction (1 h at 30° C.) is started by addition of a substrate-kinase mix. During the incubation the kinase phosphorylates the substrate (different for each kinase). Due to the fact that the ATP solution contains ^33P-labelled ATP the substrate proteins are labeled with ^33P. The reaction is stopped by addition of excess H3PO4. If the reaction is performed in plates binding substrate proteins, said plates are washed to reduce unspecific signals (mainly not used ATP). […] Therefore, the incorporated radioactivity is detected by scintillation counting. Data is evaluated, processed and analyzed as described for the LANCE assays. […]
# The reaction cocktails were incubated at 30° C. for 60 minutes. […] Incorporation of 33Pi (counting of “cpm”) was determined with a microplate scintillation counter (Microbeta, Wallac).
# [4] = system: HCC2429 cells; assay: Proliferation / cell viability assay (Cell Titer Glo) on HCC2429; assay type: cell-based; conditions: FIG. 1; for IC50: 72 h incubation, ATP content by CTG; for effect on proliferation of HCC2429 cells, in words: dose response experiments
# Description: Proliferation assays were performed as described below under materials and methods. […] (Cpd B1 and Ro-3306) were applied at concentrations between 30 and 0.0137 μM. After 72 h incubation with compounds ATP content/proliferation was determined employing CTG (Promega). Relative proliferation values (compared to vehicle control) were used to calculate IC50 values (Excel fit; algorithm #205). IC50s of the respective compound (Y-axis; logarithmic scale) on proliferation of various cell lines (X-axis) are depicted in black bars. White bars indicate that an IC50 could not be determined due to too low activity and therefore was higher than the highest applied concentration in the assays (30 μM). IC50s of compounds on CDK9 inhibitor sensitive cell line HCC2429 are presented in grey bars.
# Cell lines were maintained in RPMI 1640 cell culture medium+glutamine (PAN Biotech GmbH, Aidenbach, Germany; order no. P04-22100; P04-05500) supplemented with 10% fetal calf serum “Gold” (PAA Laboratories GmbH, Pasching, Austria; order no. A15-151) and grown in a humidified atmosphere at 37° C., 5% CO2. As a first step, an optimal cell density for each cell line was determined to guarantee linearity. For viability assays with compounds, cells were then seeded at a density of 200 to 1000 per well in 25 μl in 384-well plates (Greiner Bio-One, Frickenhausen, Germany; order no. 781080). After overnight incubation at 37° C./5% CO2, 25 nl or 75 nl compounds were added to each sample well by using BIOMEK FX^P Laboratory Automation Workstation (Beckman Coulter, USA). Wells with cells and 0.1% or 0.3% DMSO in culture medium were used as positive controls, wells with cells and 10 μM staurosporine (Selleck Chemicals, Huston, USA) in culture medium were used as negative controls. Upon incubation with compounds for 72 h at 37° C./5% CO2 25 μl Cell Titer Glo reagent (Promega, Madison, USA, order no. G7573; 1:2 diluted with cell culture medium) was added to each well to determine cell viability. 384well-plates were placed for 2 min on an orbital microplate shaker and incubated for further 10 min at room temperature resulting in a stabilization of light signal. Luminescence was measured by Envision Plate Reader (Perkin Elmer, USA). IC50 values were calculated with the software Excel Fit (IDBS, Guildford, UK) from 3-fold dilution series comprising 8 concentrations in duplicates.
# T1 sequence (P50750 whole entry): as the sequence (P50750 whole entry) above
# T1 sequence (O60563 whole entry partner): as the sequence (O60563 whole entry partner) above
Compound,"CDK9 inhibition potency, in words [1]","proliferation inhibition in mutated, sensitive cell lines compared with wild type cell lines, in words [2]","residual kinase activities / kinase selectivity, in words [3]","IC50 ([4]; Homo sapiens, HCC2429) [nM]","effect on proliferation of HCC2429 cells, in words [4]",IC50 [4] [nM]
"COc1ccccc1-c1cc(Nc2cccc(CS(N)(=O)=O)c2)ncn1 [1073485-20-7P, 3-[[6-(2-methoxyphenyl)-4-pyrimidinyl]amino]-Benzenemethanesulfonamide]",relatively weak,"much more potent in mutated, sensitive cell lines",–,–,–,–
"COc1ccccc1-c1ncnc(Nc2cccc(CS(N)(=O)=O)c2)n1 [Cpd B1, 3-[(4-(2-Methoxyphenyl)-1,3,5-triazin-2-yl)amino]benzenemethanesulfonamide]",–,–,inhibits only CDK9 with high potency,151,potently affected proliferation,–
O=C1NC(=NCc2cccs2)S/C1=C\c1ccc2ncccc2c1 [Ro-3306],–,–,–,–,did not show comparable effects,> 10000
